From PubChem BioAssay (NCI)
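Grown in 96-well plates, cells were treated for 48 hours with each compound at five concentrations. Insufficient inhibition: endpoint recorded as highest concentration tested. TGI marks complete inhibition of growth.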

Assays:
Assay in all cases: NCI anticancer screen, dose series, 48 h
[1] = system: A498 renal
[2] = system: CCRF-CEM leukemia
[3] = system: HOP-62 NSCLC
[4] = system: MDA-MB-435
[5] = system: NCI-H522 lung
[6] = system: OVCAR-5 ovarian
[7] = system: SNB-75 CNS
[8] = system: U251 CNS
[9] = system: K-562 leukemia
[10] = system: SF-539 CNS

`CCCCCC(=O)OCC1(CO)C/C(=C/CC(C(C)C)C(C)C)C(=O)O1` (stereo not given) showed a TGI [1] greater than 75 µM, a TGI [2] of 68.7 µM and a TGI [3] greater than 75 µM. It also gave a TGI [4] greater than 75 µM, a TGI [5] of 27.7 µM and a TGI [6] greater than 75 µM. For the same molecule, the TGI [7] was greater than 75 µM and the TGI [8] was greater than 75 µM.
In the case of `NS(=O)(=O)c1ccc(NS(=O)(=O)c2ccc(NC(=O)N(c3ccccc3)c3ccccc3)cc2)cc1`, the TGI [1] is reported as greater than 100 µM, the TGI [2] is reported as greater than 100 µM and the TGI [3] is reported as greater than 100 µM. It also gave a TGI [9] greater than 100 µM, a TGI [4] of 77 µM and a TGI [5] greater than 100 µM. The TGI [6] was greater than 100 µM and the TGI [8] was greater than 100 µM.
`c1ccc(C2C3=C(CCCC3)Nc3nnnn32)cc1` (stereo not given) was tested, and the TGI [1] was greater than 100 µM, the TGI [3] was greater than 100 µM and the TGI [9] was greater than 100 µM. It also gave a TGI [4] greater than 100 µM, a TGI [6] greater than 100 µM and a TGI [10] greater than 100 µM. The TGI [8] was greater than 100 µM.
`COc1cc(OC)cc(-c2nc3ccccc3c(=O)[nH]2)c1` gave a TGI [1] of 82.2 µM, a TGI [2] greater than 100 µM and a TGI [3] greater than 100 µM. It also gave a TGI [9] greater than 100 µM, a TGI [4] greater than 100 µM and a TGI [6] greater than 100 µM. For the same molecule, the TGI [7] was 58.3 µM and the TGI [8] was greater than 100 µM.
`CC(=O)O[C@H]1CC[C@]2(C=O)[C@H]3CC[C@]4(C)[C@@H](C5=CC(=O)OC5)CC[C@]4(O)[C@@H]3CC[C@]2(O)C1` gave a TGI [1] of 1.16 µM, a TGI [2] greater than 31.6 µM and a TGI [3] of 0.833 µM. The TGI [9] was greater than 100 µM, the TGI [4] was 0.984 µM and the TGI [5] was 0.357 µM. The TGI [6] was 1.87 µM, the TGI [10] was 0.26 µM and the TGI [8] was 0.559 µM.
`Cc1cccc(-c2cc(=O)c3cc(C)cnc3[nH]2)c1` gave a TGI [1] greater than 24.2 µM, a TGI [2] of 36.9 µM and a TGI [3] greater than 100 µM. The TGI [9] was greater than 33.3 µM, the TGI [5] was 0.259 µM and the TGI [6] was greater than 100 µM. For the same molecule, the TGI [10] was 2.62 µM, the TGI [7] was greater than 100 µM and the TGI [8] was greater than 100 µM.
For `COC1OC2COC(c3ccccc3)OC2C(OC(=S)c2ccccc2)C1O` (stereo not given), the TGI [1] was greater than 100 µM, the TGI [2] was greater than 100 µM and the TGI [3] was 41.1 µM. The TGI [9] was greater than 100 µM, the TGI [4] was 22.8 µM and the TGI [6] was greater than 100 µM. For the same molecule, the TGI [10] was 27.7 µM and the TGI [8] was 26.2 µM.
Work on `O=C1/C(=C/Cc2ccco2)N=C(c2ccccc2)N1c1nc2c(Cl)cc(Cl)cc2s1` yielded a TGI [1] of 43.4 µM, a TGI [2] of 39.8 µM and a TGI [3] greater than 100 µM. The TGI [9] was greater than 100 µM, the TGI [4] was 60.1 µM and the TGI [6] was greater than 100 µM. It also gave a TGI [10] of 61.3 µM and a TGI [8] of 83.5 µM.
For `Cc1cc(N)c2cc(NC(=O)CCCCCCCCC(=O)Nc3ccc4nc(C)cc(N)c4c3)ccc2n1`, the TGI [1] was 74 µM, the TGI [2] was greater than 61.3 µM and the TGI [3] was greater than 100 µM. The TGI [9] was greater than 100 µM, the TGI [5] was 5.36 µM and the TGI [6] was greater than 100 µM. For the same molecule, the TGI [10] was 26.5 µM, the TGI [7] was greater than 100 µM and the TGI [8] was 49.3 µM.
`CC(NC1=NCCO1)c1ccco1` (stereo not given) showed a TGI [1] greater than 100 µM, a TGI [2] greater than 100 µM and a TGI [3] greater than 100 µM. It also gave a TGI [9] greater than 100 µM, a TGI [4] greater than 100 µM and a TGI [5] greater than 100 µM. It also gave a TGI [6] greater than 100 µM, a TGI [10] greater than 100 µM and a TGI [8] greater than 100 µM.
`N#Cc1nc(C(=O)c2ccccc2)oc1N` showed a TGI [1] greater than 100 µM, a TGI [2] greater than 100 µM and a TGI [3] greater than 100 µM. For the same molecule, the TGI [9] was greater than 100 µM, the TGI [4] was greater than 100 µM and the TGI [6] was greater than 100 µM. For the same molecule, the TGI [7] was 8.45 µM and the TGI [8] was greater than 100 µM.
`CC1CC/C(=C\c2ccc(F)cc2)C2=C1C(c1ccc(F)cc1)NC(=S)N2` (stereo not given) was tested, and the TGI [1] was 98.7 µM, the TGI [2] was greater than 100 µM and the TGI [9] was greater than 100 µM. It also gave a TGI [4] greater than 100 µM, a TGI [10] greater than 100 µM and a TGI [8] greater than 100 µM.
Work on `Nc1nn2cc(-c3ccccc3)[n+](CC(=O)c3ccccc3)c2s1` yielded a TGI [1] greater than 100 µM, a TGI [2] of 54.6 µM and a TGI [3] of 87.5 µM. The TGI [9] was 66.7 µM, the TGI [4] was greater than 100 µM and the TGI [5] was 26.1 µM. For the same molecule, the TGI [6] was 53.6 µM, the TGI [10] was 42.3 µM and the TGI [8] was 29.6 µM.
Molecule `CC(C)c1cc(C(C)C)c(B(c2ccccc2)c2ccccc2)c(C(C)C)c1Br` has a TGI [1] greater than 100 µM, a TGI [2] greater than 100 µM and a TGI [3] greater than 100 µM. The TGI [9] was greater than 100 µM, the TGI [4] was greater than 100 µM and the TGI [5] was greater than 100 µM. It also gave a TGI [6] greater than 100 µM, a TGI [10] greater than 100 µM and a TGI [8] greater than 100 µM.
`N#CC(NNC(=O)c1c(Cl)c(Cl)c(Cl)c(Cl)c1-c1nc2ccc(C(=O)c3ccccc3)cc2[nH]1)c1cccc(Oc2ccccc2)c1` (stereo not given) gave a TGI [1] of 63.4 µM, a TGI [2] of 29 µM and a TGI [3] of 70.2 µM. It also gave a TGI [9] greater than 100 µM, a TGI [4] of 53.6 µM and a TGI [6] of 80.3 µM. It also gave a TGI [10] of 43.4 µM, a TGI [7] of 72.8 µM and a TGI [8] greater than 100 µM.
Work on `C/C(=N/NC(=O)c1ccccc1Nc1ccccc1C(=O)N/N=C(\C)c1ccc(C)cc1)c1ccc(C)cc1` yielded a TGI [1] greater than 100 µM, a TGI [2] greater than 100 µM and a TGI [3] greater than 100 µM. For the same molecule, the TGI [9] was greater than 100 µM, the TGI [4] was greater than 100 µM and the TGI [6] was greater than 100 µM. It also gave a TGI [7] greater than 100 µM and a TGI [8] greater than 100 µM.
`Cc1cnc2[nH]c(-c3sccc3C)cc(=O)c2c1` was tested, and the TGI [1] was greater than 100 µM, the TGI [2] was greater than 100 µM and the TGI [3] was greater than 100 µM. For the same molecule, the TGI [9] was greater than 100 µM, the TGI [5] was 4.49 µM and the TGI [6] was greater than 100 µM. For the same molecule, the TGI [10] was greater than 91.6 µM, the TGI [7] was greater than 100 µM and the TGI [8] was greater than 100 µM.
`C/C(=N\Nc1nc2ccccc2n1C)c1ccncn1` showed a TGI [1] of 5.79 µM, a TGI [2] greater than 52.6 µM and a TGI [3] greater than 100 µM. The TGI [9] was greater than 100 µM, the TGI [5] was greater than 31.4 µM and the TGI [6] was greater than 100 µM. It also gave a TGI [10] of 21.8 µM, a TGI [7] greater than 70.9 µM and a TGI [8] greater than 32.9 µM.
